# Laboratory results published in ChEMBL document CHEMBL1649118, “Tissue accumulation of cephalothin in burns: a comparative study by microdialysis of subcutaneous interstitial fluid cephalothin concentrations in burn patients and healthy volunteers” (Antimicrob Agents Chemother, 2009).
# What was measured:
# [1] = Drug level in subcutaneous interstitial fluid at burnt site of patient at 1 g, iv administered as 5 mins infusion measured after 240 min; assay type: ADME, organism-based; details: human, read-out: Drug uptake
# [2] = Drug level in subcutaneous interstitial fluid at nonburnt site of patient at 1 g, iv administered as 5 mins infusion measured after 240 min; assay type: ADME, organism-based; details: human, read-out: Drug uptake
# [3] = Drug level in subcutaneous interstitial fluid of healthy human at 1 g, iv administered as 5 mins infusion measured after 240 min; assay type: ADME, organism-based; details: read-out: Drug uptake
# [4] = system: Staphylococcus aureus; experiment: Antimicrobial activity against Staphylococcus aureus; assay type: functional
# [5] = T>MIC in Staphylococcus aureus infected burn patient at nonburnt tissue site at 1g, iv administered as 5 mins infusion; assay type: functional
# [6] = T>MIC in healthy human at 1g, iv administered as 5 mins infusion; assay type: functional
# [7] = T>MIC in Staphylococcus aureus infected burn patient at burnt tissue site at 1g, iv administered as 5 mins infusion; assay type: functional
# [8] = Time during which concentration exceeded the 5 X MIC for Staphylococcus aureus infected burn patient at nonburnt tissue site at 1g, iv administered as 5 mins infusion; assay type: functional
# [9] = Time during which concentration exceeded the 5 X MIC for Staphylococcus aureus in healthy human at 1g, iv administered as 5 mins infusion; assay type: functional
# [10] = Time during which concentration exceeded the 5 X MIC for Staphylococcus aureus infected burn patient at burnt tissue site at 1g, iv administered as 5 mins infusion; assay type: functional
# [11] = system: Plasma; experiment: Fraction unbound in healthy human plasma at 1g, iv administered as 5 mins infusion by microdialysis; assay type: ADME, organism-based; details: in vivo
# [12] = system: Plasma; experiment: Fraction unbound in burn patient at 1g, iv administered as 5 mins infusion by microdialysis; assay type: ADME, organism-based; details: human, in vivo
# [13] = Fraction unbound in healthy human interstitial fluid at 1g, iv administered as 5 mins infusion by microdialysis; assay type: ADME, organism-based; details: in vivo
# [14] = Fraction unbound in burn patient interstitial fluid at burn site at 1g, iv administered as 5 mins infusion by microdialysis; assay type: ADME, organism-based; details: human, in vivo
# [15] = Fraction unbound in burn patient interstitial fluid at nonburn site at 1g, iv administered as 5 mins infusion by microdialysis; assay type: ADME, organism-based; details: human, in vivo
# [16] = Plasma protein binding in burn patient at 1g, iv administered as 5 mins infusion; assay type: ADME, organism-based; details: human, read-out: PPB (converted)
# [17] = Plasma protein binding in healthy human at 1g, iv administered as 5 mins infusion; assay type: ADME, organism-based; details: read-out: PPB (converted)
structure (smiles),measurement,setting,value
CC(=O)OCC1=C(C(=O)O)N2C(=O)[C@@H](NC(=O)Cc3cccs3)[C@H]2SC1 [CEPHALOTHIN],concentration at 4 h,[1],2840 ng/mL
same,concentration at 4 h,[2],3060 ng/mL
same,concentration at 4 h,[3],540 ng/mL
same,MIC,[4],0.2 µg/mL
same,T>MIC,[5],336 min
same,T>MIC,[6],160 min
same,T>MIC,[7],285 min
same,T,[8],219 min
same,T,[9],96 min
same,T,[10],191 min
same,Cp,[11],17600 ng/mL
same,Cp,[12],38700 ng/mL
same,Cp,[13],8600 ng/mL
same,Cp,[14],14500 ng/mL
same,Cp,[15],8900 ng/mL
same,fraction unbound at 5 min,[16],0.42
same,fraction unbound at 5 min,[17],0.292
